Structures can show the parent of a compound that is named as a salt.
What follows are compounds tested against T1, PKA catalytic domain (Homo sapiens, UniProt P17612) (assay: Measurement of PKA kinase inhibitory activity (IC50), 33P-ATP filter plate assay). Conditions: 1 nM enzyme, 40 μM ATP/γ33P-ATP, 5 μM substrate […], 20 minutes.
T1 construct: using the PKA catalytic domain from Upstate Biotechnology (#14-440); purchased Upstate Biotechnology 14-440
Assay type: biochemical
Procedure: Compounds of the invention can be tested for PK inhibitory activity using the PKA catalytic domain from Upstate Biotechnology (#14-440) and the 9 residue PKA specific peptide ([…]), also from Upstate Biotechnology (#12-257), as the substrate. A final concentration of 1 nM enzyme is used in a buffer that includes 20 mM MOPS pH 7.2, 40 μM ATP/γ^33P-ATP and 5 μM substrate. Compounds are added in dimethylsulphoxide (DMSO) solution to a final DMSO concentration of 2.5%. The reaction is allowed to proceed for 20 minutes before addition of excess orthophosphoric acid to quench activity. Unincorporated γ^33P-ATP is then separated from phosphorylated proteins on a Millipore MAPH filter plate. The plates are washed, scintillant is added and the plates are then subjected to counting on a Packard Topcount.
The % inhibition of the PKA activity is calculated and plotted in order to determine the concentration of test compound required to inhibit 50% of the […] activity (IC50).

Row | Structure (SMILES) | IC50 [nM]
1 | CNCC(c1ccc(Cl)cc1)c1ccc(-c2ncnc3ccsc23)cc1 (stereo not shown) [Example 1, [2-(4-Chloro-phenyl)-2-(4-thieno[3,2-d]-pyrimidin-4-yl-phenyl)-ethyl]-methyl-amine bis-trifluoroacetate] | < 1000
2 | Clc1ccc(C2(c3ccc(-c4ncnc5ccsc45)cc3)CCNCC2)cc1 [Example 4, 4-{4-[4-(4-Chloro-phenyl)-piperidin-4-yl]-phenyl}-thieno[3,2-d]pyrimidine formate] | < 1000

Each compound was assayed against T2, PKB-PIF (Homo sapiens, UniProt P31751) (assay: Measurement of PKB kinase inhibitory activity (IC50), 33P-ATP filter plate assay). Conditions: 0.6 nM enzyme, 30 μM ATP/γ33P-ATP, 25 μM AKTide-2T substrate, 20 minutes.
T2 construct: PIF (fusion partner); made in house
T2 sequence (P31751 with tags, fused parts or gaps limits assumed): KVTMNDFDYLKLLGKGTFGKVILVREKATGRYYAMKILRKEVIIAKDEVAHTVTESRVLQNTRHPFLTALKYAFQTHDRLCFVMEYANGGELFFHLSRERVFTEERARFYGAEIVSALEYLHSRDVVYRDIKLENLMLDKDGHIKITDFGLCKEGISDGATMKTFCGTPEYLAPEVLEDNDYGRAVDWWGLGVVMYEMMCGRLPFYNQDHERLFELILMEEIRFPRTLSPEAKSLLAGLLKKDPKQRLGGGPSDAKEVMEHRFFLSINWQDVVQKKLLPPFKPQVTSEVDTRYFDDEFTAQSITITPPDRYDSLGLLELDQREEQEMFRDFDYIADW
Assay type: biochemical
Text: The inhibition of protein kinase B (PKB) activity by compounds can be determined determined essentially as described by Andjelkovic et al. (Mol. Cell. Biol. 19, 5061-5072 (1999)) but using a fusion protein described as PKB-PIF and described in full by Yang et al (Nature Structural Biology 9, 940-944 (2002)). The protein is purified and activated with PDK1 as described by Yang et al. The peptide AKTide-2T (H-A-R-K-R-E-R-T-Y-S-F-G-H-H-A-OH) obtained from Calbiochem (#123900) is used as a substrate. A final concentration of 0.6 nM enzyme is used in a buffer that includes 20 mM MOPS pH 7.2, 30 μM ATP/γ^33P-ATP and 25 μM substrate. Compounds are added in DMSO solution to a final DMSO concentration of 2.5%. The reaction is allowed to proceed for 20 minutes before addition of excess orthophosphoric acid to quench activity. The reaction mixture is transferred to a phosphocellulose filter plate where the peptide binds and the unused ATP is washed away. After washing, scintillant is added and the incorporated activity measured by scintillation counting.
The % inhibition of the PKB activity is calculated and plotted in order to determine the concentration of test compound required to inhibit 50% of the PKB activity (IC50).

Row | Structure (SMILES) | IC50 [nM]
3 | CNCC(c1ccc(Cl)cc1)c1ccc(-c2ncnc3ccsc23)cc1 (stereo not shown) [Example 1, [2-(4-Chloro-phenyl)-2-(4-thieno[3,2-d]-pyrimidin-4-yl-phenyl)-ethyl]-methyl-amine bis-trifluoroacetate] | < 1000
4 | NC1CCN(c2ccnc3c2C(=O)C(=O)N3)CC1 [Example 10, 4-(4-Amino-piperidin-1-yl)-1H-pyrrolo[2,3-b]pyridine-2,3-dione] | < 50000
5 | NC1(Cc2ccc(Cl)cc2)CCN(c2ncnc3ccsc23)CC1 [Example 7, 4-(4-Chlorobenzyl)-1-thieno[3,2-d]pyrimidin-4-ylpiperidin-4-ylamine] | < 1000
6 | Clc1ccc(C2(c3ccc(-c4ncnc5ccsc45)cc3)CCNCC2)cc1 [Example 4, 4-{4-[4-(4-Chloro-phenyl)-piperidin-4-yl]-phenyl}-thieno[3,2-d]pyrimidine formate] | < 1000
7 | NC1CCN(c2ncnc3sccc23)CC1 [Example 9, 1-Thieno[2,3-d]pyrimidin-4-ylpiperidin-4-ylamine] | < 50000
8 | NC1(C(=O)NCc2ccc(Cl)cc2)CCN(c2ncnc3ccsc23)CC1 [Example 5, 4-Amino-1-thieno[3,2-d]pyrimidin-4-yl-piperidine-4-carboxylic acid 4-chloro-benzylamide] | < 1000
9 | NC(c1ccc(Cl)cc1)C1CCN(c2ncnc3ccsc23)CC1 (stereo not shown) [Example 8, C-(4-Chlorophenyl)-C-(1-thieno[3,2-d]pyrimidin-4-ylpiperidin-4-yl)methylamine] | < 1000
10 | NCC(c1ccc(Cl)cc1)N1CCN(c2ncnc3ccsc23)CC1 (stereo not shown) [Example 3, 2-(4-Chloro-phenyl)-2-(4-thieno[3,2-d]pyrimidin-4-yl-piperazin-1-yl)-ethylamine formate] | < 1000
11 | NCCC(c1ccc(Cl)cc1)c1ccc(-c2ncnc3ccsc23)cc1 (stereo not shown) [Example 2, 3-(4-Chloro-phenyl)-3-(4-thieno[3,2-d]pyrimidin-4-yl-phenyl)-propylamine] | < 1000
12 | NC1CCN(c2ncnc3ccsc23)CC1 [Example 6, 1-Thieno[3,2-d]pyrimidin-4-ylpiperidin-4-ylamine] | < 5000
13 | NC1(Cc2ccc(Cl)cc2)CCN(c2ccnc3c2OCC(=O)N3)CC1 [Example 11, 8-[4-Amino-4-(4-chloro-benzyl)-piperidin-1-yl]-4H-pyrido[3,2-b][1,4]oxazin-3-one] | < 5000

Reference: patent publication US20090124610A1, “PHARMACEUTICAL COMPOUNDS” (priority 2006, published 2009)
